Columns and labels:
LN229 MGMT−/MMR− cells = assay: Short-term cell viability assay; format: cell-based, human
Experimental: (§1) Short-term Cell Viability Assay. Cells were seeded in 96-well plates at 1000 or 2000 cells/well and allowed to adhere at 23° C. for 60 min and then incubated overnight at 37° C. Cells were treated with indicated concentrations of compounds in triplicate for 4-6 days prior to fixation with 3.7% paraformaldehyde and nuclear staining with 1 μg/mL Hoechst 33342 dye. Cells were imaged on a Cytation 3 imaging reader (BioTek) and quantified using CellProfiler software.
Statistical analysis. Statistical analysis was performed using GraphPad Prism software. Data are presented as mean or median±SD or SEM as indicated. For in vitro short-term growth delay experiments, IC50 values were determined from the nonlinear regression equation, [inhibitor] vs normalized response with variable slope. […]
We synthesized the imidazotetrazine 4a (KL-50) and the triazene 4b (KL-85), as vehicles to deliver 2-fluoroethyl diazonium (4c), and a series of related agents to probe structure-activity relationships in tissue culture (FIG. Z1, D and F). […] We evaluated the cytotoxicity of our compounds in short-term cell viability assays against four isogenic LN229 glioblastoma cell lines engineered to be proficient or deficient in MGMT and/or MMR activity, using short hairpin RNAs (shRNAs) targeting MSH2 (referred to as MGMT+/−, MMR+/− cells hereafter; FIG. ZS2A). […]

[1] = tested on: LN229 MGMT−/MMR+ and MGMT−/MMR− cells; assay: IR alkaline comet assay; format: cell-based, human
Experimental: IR Alkaline Comet Assay. Assay was performed utilizing the CometAssay Kit (Trevigen) according to the alkaline assay protocol, with the addition of slide irradiation post-lysis. Cells were trypsinized, washed with 1×PBS, added to melted Comet LMAgarose (Trevigen), and spread on Trevigen CometSlides at a density of 1000 cells per sample in 50 μL. Lysis solution (Trevigen) with 10% DMSO was added overnight at 4° C. Slides were removed from lysis buffer and irradiated to 0 or 10 Gy using an XRAD 320 X-Ray System (Precision X-Ray) at 320 kV, 12.5 mA, and 50.0 cm SSD, with a 2 mm Al filter and 20 cm×20 cm collimator. Slides were then placed in alkaline buffer (200 mM NaOH, 1 mM EDTA) for 45 min, followed by electrophoresis in 850 mL alkaline buffer for 45 min at 4° C. Slides were washed and stained with SYBR gold (Invitrogen) per Trevigen assay protocol. Slides were imaged on a Cytation 3 imaging reader (BioTek), and comets were analyzed using CometScore 2.0 software (TriTek).
We used a well-established comet assay adapted for ICL detection to determine if ICLs were formed in MGMT− cells treated with KL-50 (4a) (FIG. Z3, A and B). In this assay, cells were sequentially exposed to genotoxins and ionizing radiation, and then analyzed by single cell alkaline gel electrophoresis. Attenuation of the IR-induced comet tail is indicative of ICL formation.

[2] = tested on: genomic DNA of LN229 MGMT−/MMR+ cells; assay: Genomic DNA denaturing gel electrophoresis; format: cell-based, human; settings: 200 μM, 24 h
Experimental: Genomic DNA Denaturing Gel Electrophoresis. Cells were trypsinized, washed with 1×PBS, and stored at −80° C. prior to processing. Genomic DNA was extracted with the DNeasy Blood & Tissue Kit (Qiagen) per kit protocol. A 0.7% agarose gel was prepared in 100 mM NaCl-2 mM EDTA (pH 8) and soaked in 40 mM NaOH-1 mM EDTA running buffer for 2 h. Genomic DNA (400 ng/well) was then loaded in 1× BlueJuice loading buffer (Invitrogen) and subjected to electrophoresis at 2 V/cm for 30 min, followed by 3 V/cm for 2 h. The gel was neutralized in 150 mM NaCl-100 mM Tris (pH 7.4) for 30 min, twice, and then stained with 1× SYBR Gold in 150 mM NaCl-100 mM Tris (pH 7.4) for 90 min. Imaging was performed on a ChemiDoc XRS+ Molecular Imager (Bio-Rad).

[3] = tested on: PD20 cells, FANCD2−/− or +FANCD2; assay: Short-term cell viability assay in FANCD2 model; format: cell-based, human; settings: PD20 FANCD2−/− versus +FANCD2
Experimental: (§2) FIGS. Z4A-Z4I. KL-50 (4a) activates DNA damage response pathways and cycle arrest in MGMT− cells, independent of MMR, and induces sensitivity in cells deficient in ICL or HR repair. (FIGS. Z4A, Z4B, and Z4C) Phospho-SER139-H2AX (γH2AX) (A), 53BP1 (FIG. Z4B), and phospo-SER33-RPA2 (pRPA) (FIG. Z4C) foci formation quantified by % cells with 10 foci in LN229 MGMT+/−, MMR+/− cells treated with 0.1% DMSO control, 20 μM KL-50 (4a), or 20 μM TMZ (1a) for 48 h. Columns, mean; error bars, SD; n≥5 technical replicates. Additional time course data is presented in FIG. ZS6B to D. (FIG. Z4D) Representative foci images of data in (FIG. Z4A) to (FIG. Z4C). (FIG. Z4E) Percentage of cells in G1, S, and G2 cell cycle phases after treatment as in (A) to (C), measured using integrated nuclear (Hoechst) staining intensity. Columns, mean; error bars, SD; n=3 independent analyses. (FIG. Z4F) Change in percent cells with 1 micronuclei from baseline (DMSO control) after treatment as in (FIG. Z4A) to (FIG. Z4C). Columns, mean; error bars, SD; […] technical replicates; **** p<0.0001; ns, not significant. Additional validation is presented in FIG. ZS9, A and B. (FIG. Z4G) Short-term viability assay curves for KL-50 (4a) in PD20 cells, deficient in FANCD2 (FANCD2−/−) or complemented with FANCD2 (+FANCD2). (FIG. Z4H) Short-term viability assay curves for KL-50 (4a) in PEO4 (BRCA2+) and PEO1 (BRCA2−/−) cells pre-treated with 0.01% DMSO control or 10 μM O^6BG (+O^6BG) for 1 h prior to KL-50 (4a) addition. (FIG. Z4I) Short-term viability assay curves for KL-50 (4a) in DLD1 BRCA2+/− and BRCA2−/− cells pre-treated with 0.01% DMSO control or 10 μM O^6BG (+O^6BG) for 1 h prior to KL-50 (4a) addition. For (FIG. Z4G), (FIG. Z4H), and (FIG. Z4I), points, mean; error bars, SD; n=3 technical replicates.
Short-term Cell Viability Assay. Cells were seeded in 96-well plates at 1000 or 2000 cells/well and allowed to adhere at 23° C. for 60 min and then incubated overnight at 37° C. […] Cells were imaged on a Cytation 3 imaging reader (BioTek) and quantified using CellProfiler software.

[4] = tested on: PEO4 (BRCA2+) and PEO1 (BRCA2−/−) cells; assay: Short-term cell viability assay in PEO1/4 model; format: cell-based, human; settings: for therapeutic index (TI): PEO1/4 model, ratio of IC50 values; for sensitivity of BRCA2-deficient cells (in words): PEO1 versus PEO4, ± 10 μM O^6BG
Experimental: as §2, §1

[5] = tested on: DLD1 BRCA2+/− and BRCA2−/− cells; assay: Short-term cell viability assay in DLD1 isogenic model; format: cell-based, human; settings: for sensitivity of BRCA2-deficient cells (in words): DLD1 BRCA2−/− versus BRCA2+/−, ± 10 μM O^6BG; for therapeutic index (TI): ratio of IC50 values in MGMT+/BRCA2+ cells compared to MGMT−/BRCA2− cells
Experimental: as §2, §1

[6] = tested on: linearized pUC19 plasmid DNA; assay: Melting temperature assay; format: biochemical; settings: 100 or 500 μM for 3 h
Experimental: Melting Temperature Assay. Linearized pUC19 DNA (750 ng), prepared as described above, was incubated with the indicated concentration of either MMS or KL-50 (4a) adjusted in a final volume of 18 μL in 100 mM Tris buffer (pH 7.4) for 3 h. Drug stock concentrations were made in DMSO such that each reaction contained a fixed 5% DMSO concentration. Afterwards, 1 μL each of 20× SYBR Green dye (Invitrogen) and 20× ROX reference dye (Invitrogen) was added and melting temperature analysis was run on a StepOnePlus RT PCR System (Applied Biosciences) to generate melting temperature curves.

[7] = tested on: four isogenic LN229 glioblastoma cell lines (MGMT+/−, MMR+/−); format: cell-based; settings: LN229 MGMT+ versus MGMT− cells; listed as 12a
Experimental: as §1
Statistical analysis. Statistical analysis was performed using GraphPad Prism software. Data are presented as mean or median±SD or SEM as indicated. For in vitro short-term growth delay experiments, IC50 values were determined from the nonlinear regression equation, [inhibitor] vs normalized response with variable slope. For micronuclei assays, comparisons were made with one-way ANOVA and Sidak correction for multiple comparisons. For xenograft growth delay experiments, comparisons were made with Mann-Whitney test (for comparison of 2 groups) or Kruskal-Wallis test with FDR-adjusted p-values with Q set to 5% (for comparison of ≥3 groups). For xenograft survival analysis, Kaplan-Meier analysis was used to evaluate survival rate based on death or removal from study when body weight loss exceeded 20% of initial body weight
We synthesized the imidazotetrazine 4a (KL-50) and the triazene 4b (KL-85), as vehicles to deliver 2-fluoroethyl diazonium (4c), and a series of related agents to probe structure-activity relationships in tissue culture (FIG. Z1, D and F). The 2-fluoropropyl- and 3-fluoropropyl-triazenes (10 and 11, respectively) were prepared by diazotization of 4-aminoimdazole-5-carboxamide, followed by the addition of the respective amine. All other triazenes were prepared according to literature procedures. We evaluated the cytotoxicity of our compounds in short-term cell viability assays against four isogenic LN229 glioblastoma cell lines engineered to be proficient or deficient in MGMT and/or MMR activity, using short hairpin RNAs (shRNAs) targeting MSH2 (referred to as MGMT+/−, MMR+/− cells hereafter; FIG. ZS2A). This approach allowed us to rapidly and rigorously interrogate the relationship between MGMT and MMR status and compound activity.
The compounds 10a through 10l and TMZ were tested in the short-term cell viability assay.

[8] = tested on: LN229 MGMT+/−, MMR+/− cells; assay: Clonogenic cell survival assay; settings: cell status given in the value
Experimental: Cells were trypsinized, washed, counted, and diluted in a medium containing various concentrations of drug. They were then immediately seeded in six-well plates in triplicate at three-fold dilutions, ranging from 9000 to 37 cells per well. Depending on colony size, these plates were kept in the incubator for 10 to 14 days. After incubation, colonies were washed in phosphate-buffered saline (PBS), stained with crystal violet, counted, and quantified.

NC(=O)c1nc[nH]c1N=NNCCF [KL-85]
IC50 (LN229 MGMT−/MMR− cells): 27.5 µM
effect on IR-induced comet tail, ICL detection (in words) ([1]; MGMT−/MMR+ cells, 200 μM for 24 h, 10 Gy): Comparable results
crosslinked genomic DNA (in words) [2]: presence of crosslinked DNA

CO[C@@]12[C@H](COC(N)=O)C3=C(C(=O)C(C)=C(N)C3=O)N1C[C@@H]1N[C@@H]12 [MMC, mitomycin C]
effect on IR-induced comet tail, ICL detection (in words) ([1]; MGMT−/MMR+ cells, 0.1 μM for 24 h, 10 Gy): partial reduction in the IR-induced comet tail
effect on IR-induced comet tail, ICL detection (in words) ([1]; MGMT−/MMR+ cells, 50 μM for 2 h, 10 Gy): completely abolished the IR-induced comet tail
comet tailing in the absence of IR (in words) ([1]; MGMT−/MMR+ cells, TMZ and KL-50 200 μM, MMC 0.1 or 50 μM): did not
sensitivity of FANCD2-deficient cells (in words) [3]: hypersensitivity to crosslinking agents in FANCD2−/− cells
therapeutic index (TI) [4]: 7 fold
sensitivity of BRCA2-deficient cells (in words) [4]: hypersensitivity of PEO4 BRCA2−/− cells to crosslinking agents independent of MGMT depletion
sensitivity of BRCA2-deficient cells (in words) [5]: hypersensitivity of DLD1 BRCA2−/− cells to crosslinking agents independent of MGMT depletion
therapeutic index (TI) [5]: 26 fold

COS(C)(=O)=O [MMS, Methylmethane sulfonate, reference compound]
change in DNA melting temperature (in words) [6]: comparable changes in measured DNA melting temperature

NC(=O)c1ncn2c(=O)n(CCCl)nnc12 [MTZ, mitozolomide]
selectivity for MGMT-deficient cells [7]: ~7 fold
DNA damage in unirradiated samples (in words) ([1]; MGMT−/MMR− cells, 200 μM, 2, 8 or 24 h, 0 Gy): induced maximal damage at 2 h, which decreased over time
rate of ICL formation, DNA mobility after IR (in words) ([1]; MGMT−/MMR− cells, 200 μM, 2, 8 or 24 h, 10 Gy): reduced DNA mobility within 2 h

N.N.[Cl][Pt][Cl] [cisplatin]
sensitivity of FANCD2-deficient cells (in words) [3]: hypersensitivity to crosslinking agents in FANCD2−/− cells
therapeutic index (TI) [4]: 13 fold
sensitivity of BRCA2-deficient cells (in words) [4]: hypersensitivity of PEO4 BRCA2−/− cells to crosslinking agents independent of MGMT depletion
sensitivity of BRCA2-deficient cells (in words) [5]: hypersensitivity of DLD1 BRCA2−/− cells to crosslinking agents independent of MGMT depletion
therapeutic index (TI) [5]: 42 fold

O=NN(CCCl)C(=O)NC1CCCCC1 [lomustine]
clonogenic survival (in words) [8]: effective in MMR− cells but was cytotoxic to MGMT+ cells
